These results are taken from ChEMBL document CHEMBL4033665, “Synthesis and applications of benzohydroxamic acid-based histone deacetylase inhibitors” (Eur J Med Chem, 2017).

SMILES strings stand for the structures.

Assay [1] deals with T1, Protein deacetylase HDAC6 (Homo sapiens, UniProt Q9UBN7).
T1 sequence (Q9UBN7 whole entry): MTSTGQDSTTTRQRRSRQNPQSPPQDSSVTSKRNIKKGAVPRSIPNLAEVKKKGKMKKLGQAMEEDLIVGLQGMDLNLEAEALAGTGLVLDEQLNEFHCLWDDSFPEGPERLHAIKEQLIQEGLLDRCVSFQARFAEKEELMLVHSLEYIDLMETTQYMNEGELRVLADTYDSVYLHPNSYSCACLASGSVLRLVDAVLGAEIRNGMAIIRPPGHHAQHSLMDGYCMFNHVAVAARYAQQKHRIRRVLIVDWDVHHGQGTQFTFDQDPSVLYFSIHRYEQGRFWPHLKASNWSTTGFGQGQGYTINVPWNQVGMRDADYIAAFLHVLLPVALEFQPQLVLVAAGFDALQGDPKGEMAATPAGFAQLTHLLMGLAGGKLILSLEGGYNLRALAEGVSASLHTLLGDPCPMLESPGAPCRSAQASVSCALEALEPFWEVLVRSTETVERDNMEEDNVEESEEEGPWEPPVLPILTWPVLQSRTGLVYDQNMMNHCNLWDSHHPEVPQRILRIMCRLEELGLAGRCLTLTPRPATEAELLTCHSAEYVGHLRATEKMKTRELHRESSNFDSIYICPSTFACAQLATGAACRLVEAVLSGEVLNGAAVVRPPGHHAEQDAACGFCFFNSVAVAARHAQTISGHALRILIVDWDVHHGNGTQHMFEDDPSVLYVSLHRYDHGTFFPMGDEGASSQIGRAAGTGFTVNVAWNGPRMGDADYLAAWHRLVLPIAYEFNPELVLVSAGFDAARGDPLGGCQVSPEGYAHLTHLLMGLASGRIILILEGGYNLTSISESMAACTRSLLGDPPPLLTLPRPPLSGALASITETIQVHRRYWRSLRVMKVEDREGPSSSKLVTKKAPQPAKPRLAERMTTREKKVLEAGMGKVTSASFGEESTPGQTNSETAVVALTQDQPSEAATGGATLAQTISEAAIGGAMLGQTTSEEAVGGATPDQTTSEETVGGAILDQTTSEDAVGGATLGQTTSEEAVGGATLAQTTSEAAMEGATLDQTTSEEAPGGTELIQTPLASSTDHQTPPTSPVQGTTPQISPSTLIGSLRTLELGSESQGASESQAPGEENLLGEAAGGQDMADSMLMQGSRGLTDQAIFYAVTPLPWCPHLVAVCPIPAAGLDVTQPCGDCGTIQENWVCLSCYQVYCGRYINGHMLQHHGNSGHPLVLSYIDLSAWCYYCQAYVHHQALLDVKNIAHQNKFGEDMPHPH
The experiment in a line: Inhibition of recombinant N-terminal GST-tagged full length human HDAC6 expressed in baculovirus expression system in Sf9 insect cells using AMC-labeled RHKKAc as substrate by fluorescence method.

In assay [2] the target is T2, Histone deacetylase 1 (Homo sapiens, UniProt Q13547). Put plainly: Inhibition of C-terminal His-tag and C-terminal FLAG-tagged full length human HDAC1 expressed in baculovirus expression system using AMC-labeled RHKKAc as substrate by fluorescence method.
Assay [3] is described as follows: Inhibition of HDAC activity in human DU-145 cell nuclear extract.
Assay [4] concerns the target T3, Histone deacetylase 2 (Homo sapiens, UniProt Q92769). The experiment in a line: Inhibition of human HDAC2 using RHKKAc as substrate by fluorescence assay.
In assay [5] the target is T1, Protein deacetylase HDAC6. Put plainly: Inhibition of human HDAC6 using RHKKAc as substrate by fluorescence assay.
The target of assay [6] is T4, Histone deacetylase 5 (Homo sapiens, UniProt Q9UQL6). The experiment in a line: Inhibition of human HDAC5 using RHKKAc as substrate by fluorescence assay.
Assay [7] addresses T5, Histone deacetylase 8 (Homo sapiens, UniProt Q9BY41).
T5 sequence (Q9BY41 whole entry): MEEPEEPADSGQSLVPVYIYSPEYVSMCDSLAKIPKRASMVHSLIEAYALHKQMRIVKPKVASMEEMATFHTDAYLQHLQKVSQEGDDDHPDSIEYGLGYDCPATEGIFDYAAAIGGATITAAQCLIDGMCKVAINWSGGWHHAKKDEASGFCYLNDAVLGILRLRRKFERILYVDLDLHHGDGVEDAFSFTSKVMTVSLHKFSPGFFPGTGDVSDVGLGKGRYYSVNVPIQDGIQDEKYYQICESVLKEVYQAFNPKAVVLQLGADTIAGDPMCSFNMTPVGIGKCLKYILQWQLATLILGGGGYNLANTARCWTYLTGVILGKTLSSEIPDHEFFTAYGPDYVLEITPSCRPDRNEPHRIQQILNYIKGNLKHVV
The experiment in a line: Inhibition of human HDAC8 using RHKKAc as substrate by fluorescence assay.

Assay [8] has as its target T6, Histone deacetylase 4 (Homo sapiens, UniProt P56524). The experiment in a line: Inhibition of human HDAC4 using RHKKAc as substrate by fluorescence assay.
In assay [9] the target is T2, Histone deacetylase 1. Put plainly: Inhibition of human HDAC1 using RHKKAc as substrate by fluorescence assay.
For assay [10], the target named is T7, Polyamine deacetylase HDAC10 (Homo sapiens, UniProt Q969S8).
T7 sequence (Q969S8 whole entry): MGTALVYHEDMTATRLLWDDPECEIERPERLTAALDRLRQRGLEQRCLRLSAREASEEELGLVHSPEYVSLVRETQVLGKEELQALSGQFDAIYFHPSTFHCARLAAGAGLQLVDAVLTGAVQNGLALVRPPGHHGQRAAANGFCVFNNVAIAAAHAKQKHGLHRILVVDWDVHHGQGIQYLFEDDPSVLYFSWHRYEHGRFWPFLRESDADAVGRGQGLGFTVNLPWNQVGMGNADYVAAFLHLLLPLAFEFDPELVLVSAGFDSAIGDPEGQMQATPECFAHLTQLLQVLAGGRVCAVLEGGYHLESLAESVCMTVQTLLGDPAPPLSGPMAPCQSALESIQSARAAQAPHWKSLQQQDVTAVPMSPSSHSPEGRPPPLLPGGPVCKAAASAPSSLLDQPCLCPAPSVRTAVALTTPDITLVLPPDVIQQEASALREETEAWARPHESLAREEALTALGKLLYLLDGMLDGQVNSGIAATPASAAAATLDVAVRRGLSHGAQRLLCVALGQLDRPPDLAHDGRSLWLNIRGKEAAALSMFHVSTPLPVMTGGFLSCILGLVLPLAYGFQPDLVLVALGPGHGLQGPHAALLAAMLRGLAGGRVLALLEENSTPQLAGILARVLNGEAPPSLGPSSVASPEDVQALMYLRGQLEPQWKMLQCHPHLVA
Put plainly: Inhibition of human HDAC10 using RHKKAc as substrate by fluorescence assay.

The target in assay [11] is T3, Histone deacetylase 2. Put plainly: Inhibition of human HDAC2 after 15 mins by trypsin-coupled fluorescence assay.
Assay [12] has as its target T7, Polyamine deacetylase HDAC10. The experiment in a line: Inhibition of HDAC10 (unknown origin).
For assay [13], the target named is T6, Histone deacetylase 4. The experiment in a line: Inhibition of HDAC4 (unknown origin).
Assay [14] has as its target T4, Histone deacetylase 5. The experiment in a line: Inhibition of HDAC5 (unknown origin).
The target in assay [15] is T5, Histone deacetylase 8. The experiment in a line: Inhibition of HDAC8 (unknown origin).
In assay [16] the target is T2, Histone deacetylase 1. The experiment in a line: Inhibition of HDAC1 (unknown origin).
For assay [17], the target named is T3, Histone deacetylase 2. The experiment in a line: Inhibition of HDAC2 (unknown origin).
A further assay addresses Histone deacetylase 9 (Homo sapiens, UniProt Q9UKV0). The experiment in a line: Inhibition of HDAC9 (unknown origin).
Another assay deals with T8, Histone deacetylase 11 (Homo sapiens, UniProt Q96DB2).
T8 sequence (Q96DB2 whole entry): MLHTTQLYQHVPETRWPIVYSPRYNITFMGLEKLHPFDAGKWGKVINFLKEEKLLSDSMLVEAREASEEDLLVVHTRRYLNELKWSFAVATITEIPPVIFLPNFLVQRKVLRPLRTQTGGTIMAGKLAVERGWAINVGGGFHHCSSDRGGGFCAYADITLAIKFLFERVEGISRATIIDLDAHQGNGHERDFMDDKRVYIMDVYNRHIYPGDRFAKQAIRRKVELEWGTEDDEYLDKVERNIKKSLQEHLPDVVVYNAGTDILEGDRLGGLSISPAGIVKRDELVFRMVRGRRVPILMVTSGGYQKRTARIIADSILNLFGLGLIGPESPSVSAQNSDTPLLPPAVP
Put plainly: Inhibition of HDAC11 (unknown origin).

For assay [18], the target named is T1, Protein deacetylase HDAC6. The experiment in a line: Inhibition of HDAC6 (unknown origin).
Assay [19] in a line: Inhibition of maize HD2. The arrangement: species or system Zea mays.
The target of a further assay is Histone deacetylase HD1B (Zea mays, UniProt Q9ZTP8). Put plainly: Inhibition of maize HD1B.
Assay [20] is described as follows: Inhibition of maize HD1A. Also on record: species or system Zea mays.

T3 sequence (Q92769 whole entry): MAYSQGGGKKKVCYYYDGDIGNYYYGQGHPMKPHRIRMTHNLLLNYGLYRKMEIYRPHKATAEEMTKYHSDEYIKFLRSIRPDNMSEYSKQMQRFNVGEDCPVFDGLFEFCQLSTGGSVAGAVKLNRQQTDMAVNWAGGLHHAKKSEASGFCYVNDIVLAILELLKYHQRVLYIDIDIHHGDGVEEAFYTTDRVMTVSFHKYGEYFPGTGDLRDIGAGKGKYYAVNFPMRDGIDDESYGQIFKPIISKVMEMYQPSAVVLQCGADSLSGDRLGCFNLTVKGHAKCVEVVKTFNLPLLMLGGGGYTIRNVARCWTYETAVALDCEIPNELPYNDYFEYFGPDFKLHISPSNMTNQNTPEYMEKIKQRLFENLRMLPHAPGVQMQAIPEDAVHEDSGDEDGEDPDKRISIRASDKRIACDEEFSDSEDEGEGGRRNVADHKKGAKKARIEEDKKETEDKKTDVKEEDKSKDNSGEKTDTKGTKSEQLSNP
T2 sequence (Q13547 whole entry): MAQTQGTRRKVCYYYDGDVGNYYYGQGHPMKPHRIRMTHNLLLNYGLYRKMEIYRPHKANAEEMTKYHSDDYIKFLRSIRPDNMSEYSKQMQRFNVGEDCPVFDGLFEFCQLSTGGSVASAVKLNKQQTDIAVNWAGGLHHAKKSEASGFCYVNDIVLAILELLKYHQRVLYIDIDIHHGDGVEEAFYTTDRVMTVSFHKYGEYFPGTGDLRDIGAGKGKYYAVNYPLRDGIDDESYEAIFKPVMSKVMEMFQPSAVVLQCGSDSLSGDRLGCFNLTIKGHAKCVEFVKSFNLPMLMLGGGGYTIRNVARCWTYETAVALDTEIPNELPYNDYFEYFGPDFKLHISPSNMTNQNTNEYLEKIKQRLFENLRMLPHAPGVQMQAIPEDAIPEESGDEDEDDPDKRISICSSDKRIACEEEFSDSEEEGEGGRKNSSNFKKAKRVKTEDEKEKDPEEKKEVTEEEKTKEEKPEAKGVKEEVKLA
T4 sequence (Q9UQL6 whole entry): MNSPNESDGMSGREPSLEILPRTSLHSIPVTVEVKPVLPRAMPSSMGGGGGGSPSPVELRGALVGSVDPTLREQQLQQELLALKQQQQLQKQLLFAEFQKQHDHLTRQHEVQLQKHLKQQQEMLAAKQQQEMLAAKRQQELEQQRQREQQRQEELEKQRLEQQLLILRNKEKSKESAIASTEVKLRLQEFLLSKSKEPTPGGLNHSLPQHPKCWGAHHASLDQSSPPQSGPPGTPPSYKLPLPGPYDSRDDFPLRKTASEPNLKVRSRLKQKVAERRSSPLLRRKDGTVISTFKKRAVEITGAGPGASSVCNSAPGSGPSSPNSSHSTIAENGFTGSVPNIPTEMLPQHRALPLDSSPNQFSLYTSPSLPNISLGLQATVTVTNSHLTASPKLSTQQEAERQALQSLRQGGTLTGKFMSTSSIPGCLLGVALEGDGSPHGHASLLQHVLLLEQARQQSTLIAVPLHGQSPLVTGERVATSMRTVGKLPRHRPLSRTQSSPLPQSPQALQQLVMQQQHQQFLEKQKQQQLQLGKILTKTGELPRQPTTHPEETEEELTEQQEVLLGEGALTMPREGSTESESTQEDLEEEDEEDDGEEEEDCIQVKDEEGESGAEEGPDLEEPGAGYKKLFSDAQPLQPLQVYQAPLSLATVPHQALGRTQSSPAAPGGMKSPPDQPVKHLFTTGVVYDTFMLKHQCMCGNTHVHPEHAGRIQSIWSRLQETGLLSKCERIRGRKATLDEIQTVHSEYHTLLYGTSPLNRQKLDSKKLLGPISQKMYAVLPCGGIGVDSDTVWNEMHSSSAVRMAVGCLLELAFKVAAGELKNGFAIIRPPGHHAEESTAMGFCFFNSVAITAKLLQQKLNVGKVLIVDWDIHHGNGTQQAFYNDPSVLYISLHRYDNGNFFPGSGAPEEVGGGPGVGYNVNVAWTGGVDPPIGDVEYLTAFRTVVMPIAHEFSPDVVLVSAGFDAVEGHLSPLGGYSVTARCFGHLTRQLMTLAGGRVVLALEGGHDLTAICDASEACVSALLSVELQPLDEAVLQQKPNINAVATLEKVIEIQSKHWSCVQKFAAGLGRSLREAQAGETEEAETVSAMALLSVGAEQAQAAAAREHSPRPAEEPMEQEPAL
T6 sequence (P56524 whole entry): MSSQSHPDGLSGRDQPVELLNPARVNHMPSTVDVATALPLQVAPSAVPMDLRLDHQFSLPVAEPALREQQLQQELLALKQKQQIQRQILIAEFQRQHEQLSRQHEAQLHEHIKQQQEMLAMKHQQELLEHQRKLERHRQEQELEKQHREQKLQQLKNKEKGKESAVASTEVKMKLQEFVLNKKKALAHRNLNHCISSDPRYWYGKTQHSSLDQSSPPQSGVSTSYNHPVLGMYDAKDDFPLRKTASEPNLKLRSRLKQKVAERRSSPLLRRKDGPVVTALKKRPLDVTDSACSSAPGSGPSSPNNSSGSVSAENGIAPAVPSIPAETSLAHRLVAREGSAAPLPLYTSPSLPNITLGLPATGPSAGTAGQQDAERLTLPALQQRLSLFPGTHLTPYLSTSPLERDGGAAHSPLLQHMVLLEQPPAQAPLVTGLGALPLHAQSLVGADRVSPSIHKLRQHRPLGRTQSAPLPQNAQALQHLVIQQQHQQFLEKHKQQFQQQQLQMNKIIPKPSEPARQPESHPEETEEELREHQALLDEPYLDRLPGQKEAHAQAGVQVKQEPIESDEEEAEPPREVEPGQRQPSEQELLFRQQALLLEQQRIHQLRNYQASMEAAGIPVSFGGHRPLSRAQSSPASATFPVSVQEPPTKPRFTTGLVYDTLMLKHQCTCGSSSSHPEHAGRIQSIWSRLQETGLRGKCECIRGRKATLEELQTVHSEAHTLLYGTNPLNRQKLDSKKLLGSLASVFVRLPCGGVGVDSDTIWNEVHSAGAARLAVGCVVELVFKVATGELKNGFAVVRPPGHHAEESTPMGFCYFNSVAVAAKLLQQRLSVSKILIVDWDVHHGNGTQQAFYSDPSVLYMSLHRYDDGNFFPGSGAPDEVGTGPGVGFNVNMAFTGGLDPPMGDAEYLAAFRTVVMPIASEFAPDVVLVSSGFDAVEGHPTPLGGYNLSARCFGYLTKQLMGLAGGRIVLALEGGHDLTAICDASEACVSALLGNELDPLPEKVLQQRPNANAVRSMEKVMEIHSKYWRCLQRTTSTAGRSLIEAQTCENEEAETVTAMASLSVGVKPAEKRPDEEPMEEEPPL
Chain of Histone deacetylase HD1B (Q9ZTP8 whole entry): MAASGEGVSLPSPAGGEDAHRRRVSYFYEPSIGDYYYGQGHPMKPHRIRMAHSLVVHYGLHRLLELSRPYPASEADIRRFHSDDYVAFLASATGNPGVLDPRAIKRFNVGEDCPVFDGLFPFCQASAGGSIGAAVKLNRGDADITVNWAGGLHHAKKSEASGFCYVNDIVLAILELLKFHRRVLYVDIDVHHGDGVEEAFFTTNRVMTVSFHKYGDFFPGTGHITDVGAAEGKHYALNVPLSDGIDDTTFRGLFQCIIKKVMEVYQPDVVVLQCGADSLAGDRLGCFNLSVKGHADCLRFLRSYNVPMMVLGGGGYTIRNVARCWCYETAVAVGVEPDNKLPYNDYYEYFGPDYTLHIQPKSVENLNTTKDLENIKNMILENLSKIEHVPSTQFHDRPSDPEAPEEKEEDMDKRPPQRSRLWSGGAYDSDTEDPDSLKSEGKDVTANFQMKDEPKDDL
Chain of Histone deacetylase 9 (Q9UKV0 whole entry): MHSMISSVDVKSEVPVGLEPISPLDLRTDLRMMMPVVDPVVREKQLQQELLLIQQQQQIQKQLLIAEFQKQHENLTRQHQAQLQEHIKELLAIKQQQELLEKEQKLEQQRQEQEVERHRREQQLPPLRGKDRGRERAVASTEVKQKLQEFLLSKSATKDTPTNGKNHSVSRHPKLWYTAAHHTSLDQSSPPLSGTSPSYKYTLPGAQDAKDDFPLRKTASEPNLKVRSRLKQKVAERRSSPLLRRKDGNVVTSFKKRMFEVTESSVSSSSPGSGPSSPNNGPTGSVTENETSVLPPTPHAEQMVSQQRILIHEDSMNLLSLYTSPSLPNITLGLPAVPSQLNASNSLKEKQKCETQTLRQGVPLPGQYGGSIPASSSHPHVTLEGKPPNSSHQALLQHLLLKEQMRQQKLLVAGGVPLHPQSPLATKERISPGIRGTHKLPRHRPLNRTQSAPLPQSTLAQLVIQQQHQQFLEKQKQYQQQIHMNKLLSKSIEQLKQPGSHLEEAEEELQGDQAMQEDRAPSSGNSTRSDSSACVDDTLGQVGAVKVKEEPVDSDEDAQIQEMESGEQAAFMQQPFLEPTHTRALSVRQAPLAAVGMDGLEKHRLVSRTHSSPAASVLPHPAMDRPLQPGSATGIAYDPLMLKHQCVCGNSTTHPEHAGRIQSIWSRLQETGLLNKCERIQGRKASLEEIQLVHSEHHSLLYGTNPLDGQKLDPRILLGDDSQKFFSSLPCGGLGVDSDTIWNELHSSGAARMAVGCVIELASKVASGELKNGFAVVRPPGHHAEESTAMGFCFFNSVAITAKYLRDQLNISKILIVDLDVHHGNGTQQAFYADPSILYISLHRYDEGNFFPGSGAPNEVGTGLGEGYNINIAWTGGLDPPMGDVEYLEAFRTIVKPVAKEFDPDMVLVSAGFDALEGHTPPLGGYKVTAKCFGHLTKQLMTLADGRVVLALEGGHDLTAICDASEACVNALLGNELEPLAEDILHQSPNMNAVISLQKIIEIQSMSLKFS

In the case of `Cc1noc(C)c1-c1ccnc(N(Cc2ccc(C(=O)NO)cc2)c2cnccn2)c1`, the IC50 (usually the concentration that gives 50% inhibition) in [1] was at most 0.5 µM; at Histone deacetylase 1 [2], at least 10 µM.

Turning to `O=C(CCCc1ccccc1)Nc1ccc(C(=O)NO)cc1`, the half-inhibitory concentration (IC50) in assay [3] came to 0.044 µM.

For `CN1C(=O)C2CN(Cc3c2c2ccccc2n3Cc2ccc(C(=O)NO)cc2)C1=O` (stereo not drawn), the IC50 amounted to 7.45 µM against Histone deacetylase 2 [4]; 0.004 µM in [5]; 1.57 µM at Histone deacetylase 5 [6]; 0.25 µM against Histone deacetylase 8 [7]; 3.82 µM at Histone deacetylase 4 [8]; 3.62 µM against Histone deacetylase 1 [9]. In [10], this compound gave an IC50 of 10.5 µM.

Turning to `O=C(NO)c1ccc(CC(=O)N(CCO)c2ccccc2)cc1`, the IC50 at Histone deacetylase 2 [11] came to 4.4 µM.

For `O=C(NO)c1ccc(Cn2c3c(c4ccccc42)S(=O)(=O)CC3)cc1`, the IC50 in assay [12] is 13 µM; on Histone deacetylase 4 [13] it was 0.6 µM; at Histone deacetylase 5 [14] it was 0.4 µM; on Histone deacetylase 8 [15], 1.9 µM; at Histone deacetylase 1 [16], 12 µM; at Histone deacetylase 2 [17], above 30 µM. Besides, the IC50 amounted to 0.2 µM at Histone deacetylase 9, 17 µM against Histone deacetylase 11 and 0.008 µM in assay [18].

Consider `CCN(CC)Cc1ccc2cc(COC(=O)Nc3ccc(C(=O)NO)cc3)ccc2c1` [GIVINOSTAT], for which the concentration for half-maximal inhibition (IC50) (in assay [19]; against Histone deacetylase HD1B; in assay [20]) was 0.0075 to 0.016 µM in each case.
